Assay results reported in article PMC7990177, “Naegleria fowleri: Protein structures to facilitate drug discovery for the deadly, pathogenic free-living amoeba” (PLoS ONE, 2021).

Legend:
[1] = biological target: T1, N. fowleri S-adenosyl-L-homocysteine hydrolase (NfSAHH) (Naegleria fowleri, UniProt A0A1Z0YU84); experiment: X-ray crystal structure; format: binding
T1 construct: gene NF0035640; N-terminal His tag (vector pBG1861), E. coli BL21(DE3)R3 Rosetta; 472 residues; homo-tetramer in asymmetric unit
T1 sequence (A0A1Z0YU84 1-472): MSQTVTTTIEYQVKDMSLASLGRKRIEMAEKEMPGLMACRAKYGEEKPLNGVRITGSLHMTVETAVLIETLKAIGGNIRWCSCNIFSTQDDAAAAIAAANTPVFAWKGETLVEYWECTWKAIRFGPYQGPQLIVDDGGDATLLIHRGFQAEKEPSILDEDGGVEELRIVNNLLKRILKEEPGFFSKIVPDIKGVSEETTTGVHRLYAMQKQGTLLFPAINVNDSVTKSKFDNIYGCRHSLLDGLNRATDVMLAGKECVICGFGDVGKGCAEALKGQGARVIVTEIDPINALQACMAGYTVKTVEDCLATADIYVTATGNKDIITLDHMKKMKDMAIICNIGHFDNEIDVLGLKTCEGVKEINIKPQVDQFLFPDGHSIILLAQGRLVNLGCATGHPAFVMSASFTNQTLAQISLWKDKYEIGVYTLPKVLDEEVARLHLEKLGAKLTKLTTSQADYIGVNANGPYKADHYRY

[2] = biological target: T2, N. fowleri peptidylprolyl isomerase (NfPPI) (Naegleria fowleri, UniProt A0A2H4A315); experiment: X-ray crystal structure; format: binding; details: active site; Fig 4C legend calls the 6MKE ligand FK506-AN
T2 construct: gene NF0084240; N-terminal His tag (vector pBG1861), E. coli BL21(DE3)R3 Rosetta; 119 residues; FKBP family; chains A-D in crystal
T2 sequence (A0A2H4A315 1-119): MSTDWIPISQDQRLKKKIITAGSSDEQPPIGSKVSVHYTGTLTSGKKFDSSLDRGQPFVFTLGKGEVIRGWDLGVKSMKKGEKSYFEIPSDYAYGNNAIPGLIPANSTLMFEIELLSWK

`NC(=O)c1ccc[n+]([C@@H]2O[C@H](COP(=O)(O)OP(=O)(O)OC[C@H]3O[C@@H](n4cnc5c(N)ncnc54)[C@H](O)[C@@H]3O)[C@@H](O)[C@H]2O)c1` [NAD] was tested, and the X-ray crystal structure ([1]; with adenosine, 2.0 Å omit map shown) was “contains the adenosine substrate and NAD cofactors bound to the active site”.

With `C=CC[C@@H]1/C=C(\C)C[C@H](C)C[C@H](OC)[C@H]2O[C@@](O)(C(=O)C(=O)N3CCCC[C@H]3C(=O)O[C@H](/C(C)=C/[C@@H]3CC[C@@H](O)[C@H](OC)C3)[C@H](C)[C@@H](O)CC1=O)[C@H](C)C[C@@H]2OC` [FK506] the X-ray crystal structure [2] was “Quaternary structure of NfPPI (6MKE)”.

With `Nc1ncnc2c1ncn2[C@@H]1O[C@H](CO)[C@@H](O)[C@H]1O` [adenosine] the X-ray crystal structure ([1]; with NAD, active site, closed conformation) was “contains the adenosine substrate and NAD cofactors bound to the active site”.
